US20250034186A1, “ANTIVIRAL COMPOUNDS” (priority 2020, published 2025)

Experiments:
HRVc25 replicon = assay: HRVc25 HeLa replicon EC50; assay type: cell-based; conditions: Human rhinovirus sp., HRV25, H1-HeLa, 48 h, read-out: HRV25 Rep EC50
Method: First, HRV replicon RNA is prepared. 5 μg of DNA Template (HRVc15 or HRVc25) is linearized with 2 μL of MluI enzyme in NEB buffer-3 in a final volume of 25 μL for 3 hours at 37° C. Following incubation, linearized DNA is purified on a PCR purification column and the following in vitro transcription is performed using the following conditions: 10 μL of RiboMAX Express T7 2× buffer, 1-8 μL of linear DNA template (1 μg), 0-7 μL nuclease free water, 2 μL enzyme mix T7 express. The final volume of 20 μL is mixed and incubated at 37° C. for 30 min. Following incubation, 1 μL of RQ1 RNase free DNase is added and the mixture is incubated at 37° C. for 15 min. The resulting RNA is then purified with the MegaClear Kit (Gibco Life Technologies Cat #11835-030) and is eluted two times with 50 μL of elution buffer at 95° C. […] Replicon activity is then measured by a Renilla-Glo Luciferase Assay system. Prior to signal quantification, plates are removed from incubators and are allowed to equilibrate to 25° C. after 50 uL is removed from each well. […] Plates are then incubated for 20 min at 25° C. under gentle agitation and luciferase signal are determined with a 0.1 second detection setting using an EnVision luciferase quantification reader.

[1] = tested on: Dengue 2, New Guinea strain (NGC); assay: DENV-2 moDC EC50; assay type: cell-based; conditions: Dengue virus, Dendritic cell; human monocyte-derived dendritic cells, 48 hours, qPCR
Method: Human monocyte-derived dendritic cells (moDCs) were derived from CD14+ monocytes (AllCells) cultured in Human Mo-DC Differentiation medium containing GM-CSF and IL-4 (Miltenyi Biotec). On day 7, moDCs were harvested by mechanical disruption, washed and suspended in serum-free RPMI. moDCs were infected with Vero-derived Dengue 2, New Guinea strain (NGC) at a MOI=0.1 for two hours in serum-free RPMI with gentle agitation at 37° C. Cells were washed and resuspended in 10% serum-containing RPMI (Gibco, supplemented with sodium pyruvate, NEAA, Penicillin-Streptomycin). 10^5 cells were plated in triplicate in 96-well plates with compounds dispensed at graded doses (Hewlett-Packard D300 Digital Dispenser). All wells were normalized to 0.25% DMSO. At 48 hours, cells were washed with 1×PBS and all supernatants removed. Total RNA was extracted using RNEasy 96 plates (Qiagen) and used to generate first-strand cDNA using XLT cDNA 5× Supermix (QuantaBio). cDNA was used as a template in a Taqman qPCR duplex reaction specific to DENV2 viral and GAPDH gene expression. EC50 values were determined using Prism Graphpad software, with normalization to a positive control and no compound negative control wells.

For `C[C@H](N[P@](=O)(OC[C@@]1(C#N)O[C@@H](c2ccc3c(N)ncnn23)[C@H](O)[C@@H]1O)Oc1ccccc1)C(=O)OC1CCCCC1` [Formula I, cyclohexyl ((S)-(((2R,3S,4R,5S)-5-(4-aminopyrrolo[2,1-f][1,2,4]triazin-7-yl)-2-cyano-3,4-dihydroxytetrahydrofuran-2-yl)methoxy)(phenoxy)phosphoryl)-L-alaninate], the EC50 (HRVc25 replicon) was 7 nM and the EC50 [1] was > 6190 nM.
